Each compound was assayed against Acetylcholinesterase (Homo sapiens, UniProt P22303) (assay: Inhibition of acetylcholinesterase (unknown origin) assessed as inhibition of acetylcholine hydrolysis after 30 mins by Ellmann's method).
Acetylcholinesterase, sequence (P22303 whole entry): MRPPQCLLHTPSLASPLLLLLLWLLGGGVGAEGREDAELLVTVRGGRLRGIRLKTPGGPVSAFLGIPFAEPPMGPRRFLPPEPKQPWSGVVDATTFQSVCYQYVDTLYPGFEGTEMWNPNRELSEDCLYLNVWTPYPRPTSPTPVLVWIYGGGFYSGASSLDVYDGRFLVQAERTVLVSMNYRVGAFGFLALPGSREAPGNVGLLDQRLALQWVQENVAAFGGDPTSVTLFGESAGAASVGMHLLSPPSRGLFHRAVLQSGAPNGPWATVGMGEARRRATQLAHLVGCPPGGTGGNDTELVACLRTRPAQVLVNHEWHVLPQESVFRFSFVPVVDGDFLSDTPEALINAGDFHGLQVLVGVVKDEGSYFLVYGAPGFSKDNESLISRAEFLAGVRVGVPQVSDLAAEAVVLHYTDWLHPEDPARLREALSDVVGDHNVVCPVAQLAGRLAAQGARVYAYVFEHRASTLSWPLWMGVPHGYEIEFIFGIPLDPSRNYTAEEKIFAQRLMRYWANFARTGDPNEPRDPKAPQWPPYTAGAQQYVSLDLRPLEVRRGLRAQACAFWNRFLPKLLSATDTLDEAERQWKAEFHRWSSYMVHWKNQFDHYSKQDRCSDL

Row | Structure (SMILES) | IC50 [nM]
1 | C/C=C1\[C@H]2C=C(C)C[C@]1(N[C@H]1OC(=O)C3=C4CC(C)(C)C[C@H]4[C@@H](C)[C@@H](O)C[C@]31OC)c1ccc(=O)[nH]c1C2 | 990
2 | C/C=C1\[C@H]2C=C(C)C[C@]1(N[C@H]1OC(=O)C3=C4CC(C)(C)C[C@H]4[C@@H](C)[C@@H](O)C[C@]31O)c1ccc(=O)[nH]c1C2 | 2170
3 | C/C=C1\[C@H]2C=C(C)C[C@]1(NC1OCC3=C4CC(C)(C)C[C@H]4[C@@H](C)[C@H](O)CC31O)c1ccc(=O)[nH]c1C2 (stereo not given in full) | 110
4 | C/C=C1\[C@H]2C=C(C)C[C@]1(NC1OCC3=C4CC(C)(C)[C@H](O)[C@H]4[C@@H](C)CCC31O)c1ccc(=O)[nH]c1C2 (stereo not given in full) | 60
5 | C/C=C1/[C@@H]2Cc3[nH]c(=O)ccc3[C@@]1(N)C[C@]1(C)O[C@H]21 | 12100

Reference: ChEMBL document CHEMBL3352315, “Biotransformation of huperzine A by a fungal endophyte of Huperzia serrata furnished sesquiterpenoid-alkaloid hybrids” (J Nat Prod, 2014)
